From patent publication US8674096B2, “Substituted imidazo[1,5-a]quinoxalin-4-ones as phosphodiesterase 9 inhibitors” (priority 2009, dated 2014)

For `O=C(c1ccc2c(c1)[nH]c(=O)c1nnc(C3CCOCC3)n12)N1Cc2ccccc2C1`, the melting point was 303 °C (dec.).
For `Cc1cc2c(cc1C(=O)N1CCc3ccccc31)[nH]c(=O)c1cnc(C3CCOCC3)n12.Cl`, the melting point was 216 to 219 °C.
For `Cc1ccc2c(c1)CN(C(=O)c1cc3[nH]c(=O)c4cnc(C5CCOCC5)n4c3cc1C)C2`, the melting point was 203 to 205 °C.
With `Cc1cc2c(cc1C(=O)N1CCc3cccnc31)[nH]c(=O)c1cnc(C3CCOCC3)n12` the melting point was 341 °C (dec.).
In the case of `CCCc1nnc2c(=O)[nH]c3cc(C(=O)N4CCc5c(Cl)cccc5C4)c(C)cc3n12`, the melting point is reported as 198 to 202 °C.
In the case of `Cc1cc2c(cc1C(=O)N1Cc3c(F)ccc(F)c3C1)[nH]c(=O)c1cnc(C3CCOCC3)n12.Cl`, the melting point is reported as 199 to 201 °C (dec.).
In the case of `Cc1cc2c(cc1C(=O)N1Cc3cccc(C#N)c3C1)[nH]c(=O)c1cnc(C3CCOCC3)n12.Cl`, the melting point is reported as 328 °C (dec.).
With `COc1cccc2c1CN(C(=O)c1cc3[nH]c(=O)c4cnc(C5CCOCC5)n4c3cc1C)C2.Cl` the melting point was 209 °C (dec.).
For `Cc1cc2c(cc1C(=O)N1Cc3cccc(C4CC4)c3C1)[nH]c(=O)c1cnc(C3CCOCC3)n12.Cl`, the melting point was 286 °C (dec.).
For `Cc1cc2c(cc1C(=O)N1Cc3cccc(I)c3C1)[nH]c(=O)c1cnc(C3CCOCC3)n12.Cl`, the melting point was 313 °C (dec.).
`Cc1cc2c(cc1C(=O)N1CCc3ccc(Cl)cc31)[nH]c(=O)c1cnc(C3CCOCC3)n12.Cl` gave a melting point of 188 to 189 °C.
For `COc1cc2c(cn1)N(C(=O)c1cc3[nH]c(=O)c4cnc(C5CCOCC5)n4c3cc1C)CC2`, the melting point was 232 to 233 °C.
In the case of `Cc1cc2c(cc1C(=O)N1CCc3c(Cl)cccc31)[nH]c(=O)c1cnc(C3CCOCC3)n12.Cl`, the melting point is reported as 272 to 273 °C.
For `Cc1cc2c(cc1C(=O)N1CCc3cc(F)c(Cl)cc31)[nH]c(=O)c1cnc(C3CCOCC3)n12.Cl`, the melting point was 315 °C (dec.).
`Cc1cc2c(cc1C(=O)N1Cc3ccc(Cl)cc3C1)[nH]c(=O)c1cnc(C3CCCOC3)n12.Cl` (stereo not drawn) gave a melting point of 200 to 203 °C.
With `Cc1ccc2c(c1)CCN2C(=O)c1cc2[nH]c(=O)c3cnc(C4CCOC4)n3c2cc1C.Cl` (stereo not drawn) the melting point was 186 to 188 °C (dec.).
`Cc1cc2c(cc1C(=O)N1Cc3ccc(Cl)cc3C1)[nH]c(=O)c1cnc(C3CCOC3)n12.Cl` (stereo not drawn) showed a melting point of 185 to 187 °C.
For `Cc1cc2c(cc1C(=O)N1Cc3cccc(C)c3C1)[nH]c(=O)c1cnc(C3CCOC3)n12.Cl` (stereo not drawn), the melting point was 270 to 272 °C (dec.).
With `Cc1cnc2c(c1)CCN2C(=O)c1cc2[nH]c(=O)c3cnc(C4CCOCC4)n3c2cc1C` the melting point was 313 to 315 °C.
In the case of `Cc1cc2c(cc1C(=O)N1Cc3cccc(C)c3C1)[nH]c(=O)c1nnc(C3CCOC3)n12.Cl` (stereo not drawn), the melting point is reported as 311 °C (dec.).
In the case of `Cc1cc2c(cc1C(=O)N1CCc3onc(-c4ccc(F)cc4)c3C1)[nH]c(=O)c1nnc(C3CCOC3)n12` (stereo not drawn), the melting point is reported as 282 to 284 °C (dec.).
With `COc1cc2c(cc1C(=O)N1CCc3cc(Cl)ccc31)[nH]c(=O)c1cnc(C3CCOCC3)n12.Cl` the melting point was 328 to 330 °C (dec.).
With `Cc1cc2c(cc1C(=O)N1Cc3ccccc3C1)[nH]c(=O)c1nnc(C3(C)CCOCC3)n12` the melting point was 232 °C (dec.).
For `Cl.O=C(c1cc2[nH]c(=O)c3cnc(C4CCOCC4)n3c2cc1Cl)N1CCc2cc(Cl)ccc21`, the melting point was 352 °C (dec.).
Work on `COc1cc2c(cn1)N(C(=O)c1cc3[nH]c(=O)c4nnc(C5CCCC5)n4c3cc1C)CC2` yielded a melting point of 263 to 265 °C.
Compound `Cc1cc2c(cc1C(=O)N1CCN(C)C(c3ccccc3)C1)[nH]c(=O)c1cnc(C3CCOCC3)n12` (stereo not drawn) has a melting point of 189 to 192 °C.
In the case of `Cl.O=C(c1cc2[nH]c(=O)c3cnc(C4CCOCC4)n3c2cc1C1CC1)N1Cc2ccccc2C1`, the melting point is reported as 185 to 189 °C (dec.).
For `Cl.O=C(c1cc2[nH]c(=O)c3cnc(C4CCOCC4)n3c2cc1C1CC1)N1Cc2ccc(Cl)cc2C1`, the melting point was 199 to 203 °C (dec.).
In the case of `COc1cc2c(cc1C(=O)N1Cc3ccc(Cl)cc3C1)[nH]c(=O)c1cnc(C3CCOCC3)n12.Cl`, the melting point is reported as 210 to 213 °C (dec.).
In the case of `Cc1cc2c(cc1C(=O)N1CCc3cc(Cl)ccc31)[nH]c(=O)c1nnc(C3CCC(F)(F)CC3)n12`, the melting point is reported as 230 to 233 °C.
For `COc1cc2c(cn1)N(C(=O)c1cc3[nH]c(=O)c4cnc(C5CCOCC5)n4c3cc1C1CC1)CC2`, the melting point was 241 °C (dec.).
For `Cc1cc2c(cc1C(=O)N1Cc3cccc(F)c3C1)[nH]c(=O)c1cnc(C3CCOCC3)n12.Cl`, the melting point was 201 to 203 °C.
In the case of `Cl.O=C(c1cc2[nH]c(=O)c3cnc(C4CCOCC4)n3c2cc1Cl)N1Cc2ccccc2C1`, the melting point is reported as 332 °C (dec.).
Work on `Cc1cc2c(cc1C(=O)N1CCc3cc(F)ccc31)[nH]c(=O)c1nnc(C3CCCOC3)n12.Cl` (stereo not drawn) yielded a melting point of 235 to 237 °C.
`Cc1cc2c(cc1C(=O)N1Cc3ccccc3C1)[nH]c(=O)c1nnc(C3CCOC3)n12.Cl` (stereo not drawn) gave a melting point of 223 to 224 °C.
In the case of `Cc1cc2c(cc1C(=O)N1CCc3ncccc3C1)[nH]c(=O)c1cnc(C3CCOCC3)n12`, the melting point is reported as 236 to 239 °C.
With `Cc1cc2c(cc1C(=O)N1Cc3ccccc3C1)[nH]c(=O)c1nnc(C3CCCOC3)n12.Cl` (stereo not drawn) the melting point was 303 °C (dec.).
For `O=C(c1cc2[nH]c(=O)c3nnc(C4CCOCC4)n3c2cc1Br)N1Cc2ccccc2C1`, the melting point was 350 °C (dec.).
For `Cc1cc2c(cc1C(=O)N1CCc3cc(F)ccc31)[nH]c(=O)c1c(C)nc(C3CCOCC3)n12`, the melting point was 177 to 180 °C.
For `Cc1cc2c(cc1C(=O)N1CCc3cccnc31)[nH]c(=O)c1c(C)nc(C3CCOCC3)n12`, the melting point was 192 °C (dec.).
In the case of `COCc1cc2c(cc1C(=O)N1CCc3cc(F)ccc31)[nH]c(=O)c1cnc(C3CCOCC3)n12.Cl`, the melting point is reported as 301 to 304 °C (dec.).
With `COCc1cc2c(cc1C(=O)N1Cc3ccccc3C1)[nH]c(=O)c1cnc(C3CCOCC3)n12.Cl` the melting point was 261 to 264 °C (dec.).
Work on `Cc1c(C(=O)N2Cc3ccccc3C2)ccc2c1[nH]c(=O)c1cnc(C3CCOCC3)n12.Cl` yielded a melting point of 183 to 186 °C.
`Cc1cc2c(cc1C(=O)N1CCc3cc(C4CC4)cnc31)[nH]c(=O)c1nnc(C3CCOCC3)n12` showed a melting point of 210 to 212 °C.
For `Cc1cc2c(cc1C(=O)N1CCc3cc(C4CC4)cnc31)[nH]c(=O)c1nnc(C3CCCOC3)n12` (stereo not drawn), the melting point was 204 to 206 °C.
For `Cc1cc2c(cc1C(=O)N1CCc3cc(Cl)ccc31)[nH]c(=O)c1nnc(C3CCC3)n12.Cl`, the melting point was 225 to 228 °C.
Compound `Cc1cc2c(cc1C(=O)N1CCc3cc(F)ccc31)[nH]c(=O)c1nnc(C3CCC3)n12.Cl` has a melting point of 223 to 226 °C.
`Cc1cc2c(cc1C(=O)N1CCc3cc(Cl)ccc31)[nH]c(=O)c1nnc(C3(C)CCOCC3)n12.Cl` showed a melting point of 229 to 232 °C.
In the case of `COc1cc2c(cc1C(=O)N1CCc3cc(C)cnc31)[nH]c(=O)c1cnc(C3CCOCC3)n12`, the melting point is reported as 288 °C (dec.).
Compound `Cc1cc2c(cc1C(=O)N1CCc3cc(Cl)ccc31)[nH]c(=O)c1cnc([C@H]3CC[C@H](O)CC3)n12.Cl` has a melting point of 207 to 209 °C.
In the case of `COCc1cc2c(cc1C(=O)N1Cc3cccc(F)c3C1)[nH]c(=O)c1cnc(C3CCOCC3)n12.Cl`, the melting point is reported as 277 °C (dec.).
For `Cc1cc2c(cc1C(=O)N1CCc3cc(F)ccc31)[nH]c(=O)c1cnc([C@H]3CC[C@H](O)CC3)n12.Cl`, the melting point was 199 to 201 °C.
`Cc1cc2c(cc1C(=O)N1CCc3cc(Br)cnc31)[nH]c(=O)c1cnc([C@H]3CC[C@@H](O)CC3)n12.Cl` showed a melting point of 305 to 307 °C.
For `Cc1c(C(=O)N2CCc3cccnc32)ccc2c1[nH]c(=O)c1cnc(C3CCOCC3)n12.Cl`, the melting point was 320 °C (dec.).
For `Cc1cc2c(cc1C(=O)N1CCc3cc(Cl)ccc31)[nH]c(=O)c1nnc(CC3CC3)n12`, the melting point was 303 to 305 °C.
In the case of `CC(C)c1ncc2c(=O)[nH]c3cc(C(=O)N4CCOC(c5ccccc5)C4)ccc3n12.Cl` (stereo not drawn), the melting point is reported as 268 to 271 °C.
In the case of `CC(C)c1ncc2c(=O)[nH]c3cc(C(=O)N4CCc5c(Cl)cccc5C4)ccc3n12.Cl`, the melting point is reported as 328 to 329 °C.
Compound `COc1cc2c(cc1C(=O)N1CCOC(c3ccccc3)C1)[nH]c(=O)c1cnc(C3CCCCC3)n12.Cl` (stereo not drawn) has a melting point of 182 to 186 °C.
Work on `Cc1cc2c(cc1C(=O)N1CCc3cc(F)ccc31)[nH]c(=O)c1nnc(C3CCOCC3)n12.Cl` yielded a melting point of 221 to 223 °C.
For `Cc1cc2c(cc1C(=O)N1CCc3ccc([N+](=O)[O-])cc31)[nH]c(=O)c1cnc(C3CCOCC3)n12.Cl`, the melting point was 301 to 304 °C.
For `Cc1cc2c(cc1C(=O)N1Cc3ccccc3C1)[nH]c(=O)c1nnc(CC3CCS(=O)(=O)CC3)n12.Cl`, the melting point was 253 °C (dec.).
In the case of `Cc1cc2c(cc1C(=O)N1Cc3ccccc3C1)[nH]c(=O)c1cnc(C3CCOC3)n12.Cl` (stereo not drawn), the melting point is reported as 270 °C (dec.).
For `Cc1cc2c(cc1C(=O)N1Cc3ccccc3C1)[nH]c(=O)c1nnc(CC3CC[S+]([O-])CC3)n12` (stereo not drawn), the melting point was 248 °C (dec.).
For `Cc1cc2c(cc1C(=O)N1Cc3ccccc3C1)[nH]c(=O)c1nnc(C3CCCC3)n12`, the melting point was 318 °C (dec.).
With `Cc1cc2c(cc1C(=O)N1CCc3c(Cl)cccc3C1)[nH]c(=O)c1nnc(C3CCOCC3)n12` the melting point was 269 °C (dec.).
With `Cc1cc2c(cc1C(=O)N1Cc3cccc(Cl)c3C1)[nH]c(=O)c1nnc(C3CCOCC3)n12` the melting point was 329 °C (dec.).
Work on `Cc1cc2c(cc1C(=O)N1CCOC(c3ccccc3)C1)[nH]c(=O)c1cnc(C3CCCC3)n12` (stereo not drawn) yielded a melting point of 304 to 305 °C.
Work on `Cc1cc2c(cc1C(=O)N1CCN(C)C(c3ccccc3)C1)[nH]c(=O)c1cnc(C3CCCC3)n12` (stereo not drawn) yielded a melting point of 246 to 248 °C.
In the case of `Cc1cc2c(cc1C(=O)N1Cc3ccccc3C1)[nH]c(=O)c1cnc(C3CCCC3)n12`, the melting point is reported as 304 °C (dec.).
In the case of `Cc1cc2c(cc1C(=O)N1Cc3ccccc3C1)[nH]c(=O)c1nnc([C@@H]3CCC[C@@H]3O)n12` (racemic), the melting point is reported as 316 °C (dec.).
With `Cc1cc2c(cc1C(=O)N1Cc3ccccc3C1)[nH]c(=O)c1cnc([C@@H]3CCC[C@@H]3O)n12` (racemic) the melting point was 301 to 302 °C (dec.).
Compound `Cc1cc2c(cc1C(=O)N1CCc3cc(Cl)ccc31)[nH]c(=O)c1cnc([C@@H]3CCC[C@@H]3O)n12` (racemic) [Example 343] has a melting point of 238 to 240 °C.
